The record followed here is ChEMBL document CHEMBL1201862, “PubChem BioAssay data set” (2004).

The structures appear in SMILES notation.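 Interpolation was linear, between the two tested concentrations surrounding the appropriate level; five concentrations were tested over 48 hours in 96-well plates. The concentration for 50% growth inhibition is given as GI50.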 Calls of active or inactive are those of the source. No stated cut-off is given here; in the data, active = GI50 up to about 1.1 µM and inactive = higher.

Some test systems named below: 786-0; CCRF-CEM; HCT-116; HT-29; LXFL 529; Malme-3M; RPMI-8226; SNB-19; SR; U-251; UACC-62; XF498; CAKI-1; HOP-92; NCI-H522.
Holding throughout (experiment): inhibition of tumour cell growth, NCI panel, 48 h

Turning to `Oc1cc(-c2ccc(Oc3ccccc3)cc2)nc2cc3c(cc12)OCO3`, the GI50 with 786-0, in the test on CCRF-CEM, with HCT-116, in the test with HT-29, in the test on LXFL 529 and in the test with Malme-3M was > 100 µM (inactive) throughout. In addition, the GI50 with RPMI-8226, in the test with SNB-19, with SR, in the test on U-251, in the test with UACC-62 and in the test on XF498 was > 100 µM (inactive) in each case.
Turning to `C/C(=C1/N=C(c2cc([N+](=O)[O-])ccc2Cl)N(c2cccc(C)c2)C1=O)c1cc2ccccc2oc1=O`, the GI50 in the test with 786-0 is > 100 µM (inactive); with CAKI-1 it was > 100 µM (inactive); with CCRF-CEM it was 23.3 µM (inactive); in the test with HCT-116, 47.4 µM (inactive); with HOP-92, 76.2 µM (inactive); in the test on HT-29 it was 58.5 µM (inactive). The GI50 with LXFL 529 is 84.9 µM (inactive); with Malme-3M, > 100 µM (inactive); in the test on NCI-H522, 13.6 µM (inactive); with RPMI-8226, 20.4 µM (inactive); with SNB-19 it was 95.5 µM (inactive); in the test with SR, 30.3 µM (inactive). The GI50 with UACC-62 is 21.8 µM (inactive); in the test with XF498, 21 µM (inactive).
Turning to `COc1ccc(CC2(Cc3ccc(OC)cc3)CCOC2=O)cc1`, the GI50 in the test with 786-0 is 44 µM (inactive); with CAKI-1, 67 µM (inactive); with CCRF-CEM, > 100 µM (inactive); with HCT-116, > 100 µM (inactive); with HOP-92, 40.6 µM (inactive); in the test with HT-29 it was > 100 µM (inactive). Further, the GI50 with LXFL 529 was > 100 µM (inactive); in the test on Malme-3M, > 100 µM (inactive); in the test on NCI-H522, 17.7 µM (inactive); with RPMI-8226, > 100 µM (inactive); in the test on SNB-19, > 100 µM (inactive); with SR it was > 100 µM (inactive). Also, the values for the GI50 in the test with U-251, in the test with UACC-62 and in the test on XF498 were > 100 µM (inactive), > 100 µM (inactive) and 0.582 µM (active), respectively.
Take `O=S(=O)(c1ccccc1)C1(C2(S(=O)(=O)c3ccccc3)CCN=N2)CCN=N1` (stereo not drawn): the GI50 in the test on 786-0, with CAKI-1, in the test with CCRF-CEM, in the test on HCT-116, with HT-29 and in the test on LXFL 529 was > 100 µM (inactive) each time. Further, the GI50 in the test with Malme-3M, with NCI-H522, with RPMI-8226, with SNB-19, in the test with SR and with U-251 was > 100 µM (inactive) in each case. In addition, the GI50 with XF498 is > 100 µM (inactive).
For the molecule `CC12Oc3ccc4ccccc4c3C1c1c(ccc3ccccc13)O2` (stereo not drawn), the GI50 with 786-0 is > 100 µM (inactive); in the test on CAKI-1 it was > 100 µM (inactive); in the test on CCRF-CEM, > 100 µM (inactive); in the test on HCT-116 it was > 100 µM (inactive); in the test on HOP-92, 17.1 µM (inactive); in the test with HT-29, > 100 µM (inactive). In addition, the GI50 with LXFL 529, with Malme-3M, with NCI-H522, with SNB-19, in the test with SR and with U-251 was > 100 µM (inactive) in each case. In addition, the GI50 in the test on UACC-62 and with XF498 was > 100 µM (inactive) each time.
`CCOC(=O)NC(=O)c1cn(CCN2CCN(c3ncnc4[nH]cnc34)CC2)c(=O)[nH]c1=O`: the GI50 with 786-0 is > 100 µM (inactive); in the test on CCRF-CEM, > 100 µM (inactive); in the test with HCT-116, > 100 µM (inactive); in the test with HOP-92, 10.6 µM (inactive); in the test with HT-29 it was > 100 µM (inactive); in the test with LXFL 529 it was > 100 µM (inactive). Also, the GI50 in the test on Malme-3M, in the test on NCI-H522, in the test with RPMI-8226, with SNB-19, in the test with SR and with U-251 was > 100 µM (inactive) throughout. In addition, the GI50 in the test with UACC-62 and in the test with XF498 was > 100 µM (inactive) throughout.
Turning to `Cc1cc2c(C)nn(Cc3ccccc3)c2c(C(N)=O)c1C`, the GI50 in the test on 786-0, with CCRF-CEM, in the test with HCT-116, with HOP-92, in the test on HT-29 and in the test with LXFL 529 was > 100 µM (inactive) in each case. The GI50 in the test with Malme-3M was > 100 µM (inactive); in the test on NCI-H522 it was 99.1 µM (inactive); in the test on RPMI-8226, > 100 µM (inactive); in the test with SNB-19 it was > 100 µM (inactive); with U-251, > 100 µM (inactive); in the test on UACC-62, > 100 µM (inactive). In the test with XF498, the GI50 was > 100 µM (inactive).
As for `Clc1ncnc2c1ncn2CCCCCCCCCCCCn1cnc2c(Cl)ncnc21`, the GI50 is 17.7 µM (inactive) in the test with 786-0; 3.4 µM (inactive) in the test with CAKI-1; 1.36 µM (inactive) in the test on CCRF-CEM; 10.7 µM (inactive) in the test with HCT-116; 5.24 µM (inactive) in the test with HOP-92; 9.82 µM (inactive) in the test with HT-29. Also, the GI50 in the test with LXFL 529 was 4.44 µM (inactive); in the test with NCI-H522, 1.48 µM (inactive); with RPMI-8226, 2.13 µM (inactive); in the test on SNB-19 it was 14.7 µM (inactive); in the test with SR, 1.06 µM (active); in the test with U-251, 11.6 µM (inactive). Moreover, the GI50 in the test on UACC-62 was 13.9 µM (inactive); in the test on XF498, 9.38 µM (inactive).
As for `C[N+](C)(C)CC1CCC/C1=N\OC(=O)c1ccccc1` (stereo not drawn), the GI50 with 786-0, in the test with CCRF-CEM, with HCT-116, in the test on HT-29, in the test with LXFL 529 and in the test on Malme-3M was > 100 µM (inactive) in each case. Besides, the GI50 in the test with NCI-H522, in the test on RPMI-8226, in the test on SNB-19, with SR, in the test with U-251 and with UACC-62 was > 100 µM (inactive) throughout. For the same molecule, the GI50 in the test with XF498 is > 100 µM (inactive).
Regarding `CC(C)(C)c1cc(C(OCCl)(C(F)(F)F)C(F)(F)F)c2c(c1)C(C(F)(F)F)(C(F)(F)F)OC21c2ccccc2C(=O)c2ccccc21`, the GI50 in the test on 786-0 was > 100 µM (inactive); with CAKI-1, > 100 µM (inactive); in the test with HCT-116 it was > 100 µM (inactive); with HOP-92, < 0.01 µM (active); in the test with HT-29 it was > 100 µM (inactive); in the test on LXFL 529, > 100 µM (inactive). In addition, the GI50 with Malme-3M, in the test on NCI-H522, in the test with RPMI-8226, in the test with SNB-19, in the test on SR and in the test on U-251 was > 100 µM (inactive) throughout. Also, the GI50 with XF498 was 34 µM (inactive).
Turning to `O=C1c2c(n(Cc3ccccc3)c(=O)n2Cc2ccccc2)C(=O)N1Cc1ccccc1`, the GI50 in the test with 786-0 was > 100 µM (inactive); in the test with CAKI-1, 65.8 µM (inactive); in the test on CCRF-CEM, 9.2 µM (inactive); in the test with HCT-116, 40.3 µM (inactive); in the test on HOP-92, > 100 µM (inactive); in the test with HT-29, 82.2 µM (inactive). Besides, the GI50 in the test with LXFL 529 is 35 µM (inactive); in the test on Malme-3M, > 100 µM (inactive); in the test on NCI-H522, 56.1 µM (inactive); in the test with RPMI-8226 it was 22.8 µM (inactive); with SNB-19, 89.1 µM (inactive); in the test on U-251 it was 50.4 µM (inactive). Besides, the results for the GI50 with UACC-62 and with XF498 were 41.4 µM (inactive) and 16.4 µM (inactive), respectively.
Turning to `CC1=C(C(=O)NCc2ccccc2)C(c2ccc(N(C)C)cc2)C(C(=O)NCc2ccccc2)=C(C)N1`, the GI50 in the test with 786-0, in the test with CAKI-1, in the test with CCRF-CEM, in the test with HCT-116, with HOP-92 and with HT-29 was > 100 µM (inactive) each time. Besides, the GI50 with LXFL 529 is > 100 µM (inactive); in the test with Malme-3M, > 100 µM (inactive); in the test on NCI-H522, 77.8 µM (inactive); in the test with RPMI-8226, > 100 µM (inactive); with SNB-19 it was > 100 µM (inactive); in the test on U-251, > 100 µM (inactive). The GI50 in the test with UACC-62 and in the test on XF498 was > 100 µM (inactive) throughout.
For the molecule `c1ccc(CNc2ccc3[nH]c4cnccc4c3c2)cc1`, the GI50 was 15.3 µM (inactive) in the test on 786-0; 16.2 µM (inactive) in the test on CAKI-1; 16.9 µM (inactive) with CCRF-CEM; 17.5 µM (inactive) in the test with HCT-116; 15.6 µM (inactive) in the test on HOP-92; 17.7 µM (inactive) with HT-29. Besides, the GI50 is 16.6 µM (inactive) in the test on LXFL 529; 16.9 µM (inactive) with Malme-3M; 14 µM (inactive) in the test on NCI-H522; 16.4 µM (inactive) in the test on RPMI-8226; 16 µM (inactive) with SNB-19; 15.9 µM (inactive) with U-251. The GI50 with UACC-62 was 17.6 µM (inactive); with XF498, 19.4 µM (inactive).
As for `[N-]=[N+]=N[C@H]1C[C@@H](CO)O[C@H]1n1cnc2c(N)ncnc21`, the GI50 in the test with 786-0, in the test with CAKI-1, in the test on HCT-116, with HOP-92, in the test with HT-29 and in the test on LXFL 529 was > 100 µM (inactive) each time. Further, the GI50 is > 100 µM (inactive) in the test with Malme-3M; > 100 µM (inactive) in the test on NCI-H522; > 100 µM (inactive) with SNB-19; > 100 µM (inactive) in the test with U-251; 31.2 µM (inactive) in the test on XF498.
